Target: T1, GPR158 (Homo sapiens, UniProt Q5T848)
T1 sequence (Q5T848 24-1215): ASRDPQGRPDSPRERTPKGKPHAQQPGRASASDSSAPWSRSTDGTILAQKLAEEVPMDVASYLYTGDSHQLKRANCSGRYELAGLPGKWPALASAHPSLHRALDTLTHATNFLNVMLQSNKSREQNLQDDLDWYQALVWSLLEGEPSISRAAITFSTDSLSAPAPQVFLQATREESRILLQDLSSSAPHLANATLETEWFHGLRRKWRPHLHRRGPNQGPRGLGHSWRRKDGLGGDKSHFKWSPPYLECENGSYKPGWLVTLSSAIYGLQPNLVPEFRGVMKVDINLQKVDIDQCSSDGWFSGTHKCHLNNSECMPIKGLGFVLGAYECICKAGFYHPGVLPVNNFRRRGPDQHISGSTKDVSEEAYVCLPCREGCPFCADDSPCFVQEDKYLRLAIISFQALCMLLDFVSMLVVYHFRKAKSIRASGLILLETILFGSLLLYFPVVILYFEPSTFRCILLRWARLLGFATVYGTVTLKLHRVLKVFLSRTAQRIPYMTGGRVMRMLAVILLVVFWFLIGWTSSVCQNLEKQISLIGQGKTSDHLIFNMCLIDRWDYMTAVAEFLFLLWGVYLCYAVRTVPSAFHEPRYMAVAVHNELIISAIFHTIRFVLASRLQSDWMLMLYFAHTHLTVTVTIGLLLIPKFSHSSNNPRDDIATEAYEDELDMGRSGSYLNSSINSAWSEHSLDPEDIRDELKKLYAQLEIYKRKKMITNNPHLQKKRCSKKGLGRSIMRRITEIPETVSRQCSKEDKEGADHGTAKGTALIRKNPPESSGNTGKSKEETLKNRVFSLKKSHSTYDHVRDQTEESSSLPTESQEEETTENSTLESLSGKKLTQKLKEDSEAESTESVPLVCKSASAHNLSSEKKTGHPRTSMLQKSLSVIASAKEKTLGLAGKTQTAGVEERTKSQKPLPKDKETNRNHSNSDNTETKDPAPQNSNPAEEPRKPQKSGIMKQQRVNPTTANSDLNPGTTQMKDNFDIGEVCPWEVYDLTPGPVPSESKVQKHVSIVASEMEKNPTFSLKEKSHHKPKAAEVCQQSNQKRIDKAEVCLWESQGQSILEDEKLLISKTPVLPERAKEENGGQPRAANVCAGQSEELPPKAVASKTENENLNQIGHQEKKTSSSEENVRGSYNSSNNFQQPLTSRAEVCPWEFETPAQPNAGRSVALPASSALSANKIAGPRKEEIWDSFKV
Experiment: BRET G protein activation assay
Type: cell-based
Design: expressed in transfected cells; host or cells: HEK293FT
Settings: panel of Gα subunits; 0.1 mM; HEK293 cells
Procedure: FIGS. 5A-5I. Lack of the effects of glycine or taurine on GPR158 coupling to G proteins. A) Schematic of the assay design to monitor GPCR induced G protein activation. B-I) Representative traces evaluating G protein activation in BRET-based assay. The assay measures generation of the BRET signal between Gβγ and its reporter masGRK3CT-NLuc co-transfected into HEK293 cells with indicated Gα. The reaction is initiated by the addition of glycine (0.1 mM, square symbols) or taurine (0.1 mM triangle symbols) to GPR158 expressing cells. Control reactions conducted in parallel utilized canonical receptors and their ligands at 0.1 mM. The arrow indicates the injection time point of the ligand.
The inventors further tested whether glycine or taurine could induce GPR158 to activate G proteins as canonical GPCRs do. In these experiments, the inventors used a reverse strategy where the inventors monitored generation of the BRET signal in the same assay (FIG. 5A).
Measurements of BRET between Venus-Gβ1γ2 and masGRK3ct-Nluc were performed to monitor the release of free Gβγ dimers after activation of heterotrimers containing Gα subunits in living cells (described in detail in Masuho et al., 2015 (40)). […] An empty vector pcDNA3.1(±) was used in order to normalize the quantity of transfected DNA. […]

Compound	G protein activation via GPR158
NCC(=O)O [glycine]	no significant signal generation
NCCS(=O)(=O)O [taurine, 2-aminoethanesulfonic acid]	no significant signal generation

Source: patent publication US20260376293A1, “METHODS FOR STUDYING GPR158 PHARMACOLOGY AND IDENTIFICATION OF ITS LIGANDS” (UNIVERSITY OF FLORIDA RESEARCH FOUNDATION, INCORPORATED, priority 2022, published 2026)
